Reference: US20090192125A1, “Local anti-infective agent for treatment of nail fungal infections” (DermWorx Incorporated, priority 2007, published 2009)
Where two headings read alike, the source gives them in different places.

Columns and labels:
[1] = commercially available topical treatment of onychomycosis; cited from earlier work
[2] = for NaOM in 50 μL sample: 0.1 g nail pieces incubated 24 h at room temperature, extracted in 1 mL water for 24 h; for NaOM conc in sample: Extracting Solution
Method: These studies measured the penetration of stock solutions of sodium omadine in human fingernails. Sodium omadine (NaOM) 98% was obtained from Acros Organics, a division of Global Fisher Scientific.
Stock Solution #1. Dissolved 100 mg of NaOM in 100 mL of purified water (1.0 mg/mL).
Stock Solution #2. Diluted 2 mL of Stock Solution #1 to 100 mL of purified water (20 μg/mL).
Standard Solution #1 (2.50 μg/mL). Diluted 12.5 mL of Stock Solution #2 to 100 mL with purified water.
Standard Solution #2 (5.00 μg/mL). Diluted 25 mL of Stock Solution #2 to 100 mL with purified water.
Standard Solution #3 (7.50 μg/mL). Diluted 37.5 mL of Stock Solution #2 to 100 mL with purified water.
Standard Solution #4 (10.0 μg/mL). Diluted 50 mL of Stock Solution #2 to 100 mL with purified water.
Standard Solution #5 (20.0 μg/mL). No dilution was necessary, same as Stock Solution #2.
Nail clips, pooled from six human volunteers were cut into small pieces of approximately 0.5-1 mm×2-3 mm. The nail pieces, 0.1 g, were placed in each of the above solutions at room temperature and incubated for twenty-four hours. After incubation, the pieces were washed quickly three times with purified water to remove any residual solution on the nail surface. The pieces were then incubated in 1 mL of purified water for twenty-four hours at room temperature to extract the NaOM absorbed into the nail bed (“Extracting Solution”).
A standard curve of NaOM was made by measuring the absorption at 318 nm for a 500 μL sample containing 0.25, 0.50, 0.75, 1.0, and 2.0 μg of NaOM. An aliquot (50 μL) of each Standard Solution (#1-#5) was diluted to 500 μL with 1 mM cupric chloride (CuCl2). The standard solutions were freshly prepared and incubated at room temperature for fifteen minutes prior to spectrophotometric determination.
The amount of NaOM in each sample of Extracting Solution was determined at 318 nm. Similarly, a 50 μL aliquot of each Extracting Solution was diluted to 500 μL with 1 mM CuCl2 and incubated at room temperature for 15 minutes. The amount of NaOM in each sample of Extracting Solution was then determined at 318 nm by spectrophotometry. The concentration of the NaOM adsorbed into the nail was determined from the standard curve.

[3] = Penetration of hydroxypyridine-2-thione zinc (PT) into minced human fingernail clips (incubation, 30% DMSO extraction, absorption at 318 nm); format: in vitro ADME
Method: These studies measured the penetration of stock solutions of hydroxypyridine-2-thione zinc (PT) in human fingernails.
PT was dissolved in 100% DMSO at a concentration of 2 mg/mL to form a PT stock solution. PT working solution was made by mixing 300 μL of the PT stock solution with 700 μL of water. The final concentration was 0.6 mg/mL (30% DMSO). The nail pieces (0.1 g) were incubated in 1 mL of PT working solution overnight at room temperature. After incubation, the pieces were washed with water three times in a spin column. The pieces were then incubated in 200 μL of 30% DMSO to extract PT for 4 hours at room temperature (“Extracting Solution”).
A standard curve of PT was established by measuring the absorption at 318 nm in 500 μL samples of 30% DMSO containing 0.25, 0.5, 0.75, 1, and 2 μg PT. Standard solutions and subsequent dilutions were prepared as above. The solutions in their desired concentrations were then incubated at room temperature for 5 min prior to spectrophotometric determination.

[4] = 0.6 mg/mL PT working solution (30% DMSO), 0.1 g nail incubated overnight, extracted in 200 μL of 30% DMSO for 4 h

Cc1cc(C2CCCCC2)n(O)c(=O)c1 [Ciclopirox, ciclopirox]
penetration across the layers of the nail (in words) [1]: poor penetration

[Na+].[O-][n+]1ccccc1[S-] [NaOM, Sodium omadine]
NaOM in 0.1 g nail ([2]; Wk Sol Conc 0.01 mg/mL): 1.02 µg | NaOM in 50 μL sample ([2]; Wk Sol Conc 0.01 mg/mL): 0.34 µg | NaOM conc in sample ([2]; Wk Sol Conc 0.01 mg/mL): 7 µg/mL | NaOM in 0.1 g nail ([2]; Wk Sol Conc 0.05 mg/mL): 2.10 µg | NaOM in 50 μL sample ([2]; Wk Sol Conc 0.05 mg/mL): 0.70 µg | NaOM conc in sample ([2]; Wk Sol Conc 0.05 mg/mL): 14 µg/mL | NaOM in 0.1 g nail ([2]; Wk Sol Conc 0.1 mg/mL): 3.99 µg | NaOM in 50 μL sample ([2]; Wk Sol Conc 0.1 mg/mL): 1.33 µg | NaOM conc in sample ([2]; Wk Sol Conc 0.1 mg/mL): 27 µg/mL

[O-]n1ccccc1=S.[O-]n1ccccc1=S.[Zn+2] [PT, hydroxypyridine-2-thione zinc]
concentration of PT in Extracting Solution [3, 4]: 23000 ng/mL | concentration of PT in Extracting Solution (per 50 μL aliquot) [3, 4]: 1.15 μg/50 μL | penetration into fingernails (conclusion in words) ([3]; twelve hours or less incubation time): significant penetration
